In publication PMC4871512, “Drug-Based Lead Discovery: The Novel Ablative Antiretroviral Profile of Deferiprone in HIV-1-Infected Cells and in HIV-Infected Treatment-Naive Subjects of a Double-Blind, Placebo-Controlled, Randomized Exploratory Trial” (PLoS ONE, 2016):
Read-outs that look alike come from different tables or passages of the source.

What was measured:
in vitro = type: cell-based; settings: human
Procedure: The antiretroviral activity of deferiprone was tested in primary cultures of PBMCs, infected in vitro with clinical isolate or mock-infected with clinical isolate-identical cell- and virus-free medium as described. Briefly, to approximate the bi-compartmental mode of HIV-1 infection in vivo, which comprises a cell-generative compartment that provides non-infected but HIV-1 susceptible cells, and an HIV-generative compartment in which they become infected, the cultures were replenished as described with freshly obtained uninfected primary cells and medium at regular intervals, assuring identical cell number in both the treated and control cultures by computerized trypan blue exclusion analysis (Vi-CELL™; Beckman Coulter, Miami, FL); deferiprone concentrations were adjusted as indicated. This model allowed for months-long monitoring of HIV-1 parameters in productively infected cultures.

[1] = Proof-of-concept trial: entry PK study, deferiprone in serum after the first oral dose; type: in vivo, human; settings: for Cmax: human, serum
Text: Eligible for enrollment were volunteers of both genders, between 18 and 60 years old, healthy or HIV-infected with CD4 count ≥ 300/mm^3, viral load of ≥ 10,000 copies/ml, and absence of active infectious disease; AIDS-defining condition; febrile illness; liver or kidney disease; hypersensitivity to test material; and medication requirement. The protocol involved a screening visit; a pharmacokinetic and antiretroviral study requiring admission to a specialized Phase I research unit for a week of on-drug treatment, with multiple blood draws from a peripheral vein after oral intake of the first deferiprone dose, […], and at least three repeat blood draws (first stage of protocol); an off-drug observation period of eight weeks, which comprised at least two repeat visits (second stage of protocol); and an exit visit. Enrollment complied with the applicable standard-of-care specified in the ‘Clinical Guidelines for the Management of HIV & AIDS in Adults and Adolescents’, National Department of Health, Republic of South Africa. Primary parameters included safety and tolerability (e.g. vital signs, laboratory variables, cardiac monitoring by ECG) and antiretroviral activity (e.g. RNA copies of HIV-1). Secondary parameters included pharmacokinetic variables (e.g. peak serum concentration) in serum, drawn from a peripheral vein at fixed times (0, 0.5, 1, 1.5, 2, 3, 4, 6, 9, 12) after the ingestion of the first dose on Day 1 of the study. The concentration of the nonconjugated, chelation-competent form of deferiprone in serum was determined by UV detection at 280 nm, after separation via reversed-phase HPLC under isocratic conditions. The lower limit of deferiprone quantitation was 1.466 μM, or 0.204 μg/ml. HIV-1 RNA was measured as described and used as log10-transformed parameter in all calculations.

[2] = biological target: T1, deoxyhypusyl hydroxylase (DOHH) (Homo sapiens, UniProt Q9BU89); experiment: Cellular DOHH activity by metabolic labeling of deoxyhypusyl-eIF5A and hypusyl-eIF5A with (1,8-3H)spermidine; type: cell-based
T1 construct: endogenous in cells; host or cells: single-donor primary peripheral blood mononuclear cells (PBMCs), uninfected or infected with a clinical HIV-1 isolate
T1 sequence (Q9BU89 1-302): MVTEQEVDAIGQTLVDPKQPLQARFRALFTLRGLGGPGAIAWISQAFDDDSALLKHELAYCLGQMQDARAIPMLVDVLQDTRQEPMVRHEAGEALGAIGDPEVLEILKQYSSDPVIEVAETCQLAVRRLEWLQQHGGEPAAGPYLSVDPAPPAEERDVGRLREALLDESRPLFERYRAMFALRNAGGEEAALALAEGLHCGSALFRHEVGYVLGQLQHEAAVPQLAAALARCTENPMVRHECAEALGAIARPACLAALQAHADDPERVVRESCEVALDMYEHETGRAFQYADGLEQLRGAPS
Procedure: Fig 2 Effect of deferiprone in HIV-infected primary cells: Apoptotic DNA fragmentation, deoxyhypusyl-eIF5A accumulation, and DOHH activity. Apoptotic DNA fragmentation (Panel A) was detected by terminal deoxynucleotide transferase dUTP nick end labeling (TUNEL) of single-donor peripheral blood mononuclear cells, maintained in short-term non-replenished cultures as described. Cells were left uninfected and/or untreated; or infected immediately after plating with clinical HIV-1 isolate and 12 hours after infection, treated with 200 μM deferiprone. […] The dose-effect curve for inhibition of cellular DOHH by increasing deferiprone concentrations in short-term non-replenished single-donor cultures (Panel C) was calculated from the accumulation of its ^3H-labeled substrate and the decrease of its ^3H-labeled product; error bars are at the size of the graph symbols and not shown. Black, HIV-infected untreated cells; green, uninfected untreated cells; blue, uninfected deferiprone-treated cells; red, HIV-infected deferiprone-treated cells; large triangles, HIV-infected cells (red) or uninfected cells (blue) treated with 200 μM deferiprone.
Metabolic labeling with (1,8-^3H)spermidine at 5 μCi/ml for 18 hours was performed as described in primary cell cultures of the same volume, viability by dye exclusion, cell number, and donor origin. Following acid hydrolysis of each sample for release of radiolabeled hypusine and deoxyhypusine, separation by ion-exchange chromatography, and liquid scintillation measurement of incorporated label, 18 fractions were collected and the counts in the eluted fractions were proportionally adjusted to a total of 10,000 cpm per sample. This normalization adjusts for variances in the radioactivity of different samples and allows direct comparison of their hypusine-deoxyhypusine elution profiles. Only the hypusine- / deoxyhypusine-containing fractions (6 through 14) were used for analysis.

With `Cc1c(O)c(=O)ccn1C` [deferiprone, 3-hydroxy-1,2-dimethylpyridin-4-one] the viability at 200 µM (in vitro) was ≥ 95%, the viability at 200 μM (in vitro) was > 95% and the “subjects with serum cmax concentrations above the threshold (150 μM)” value ([1]; 99 mg group) was 4 of 7. The “subjects with serum cmax concentrations above the threshold (150 μM)” value ([1]; 150 mg group) was 3 of 4, the Cmax ([1]; both sexes, oral, approximation from pharmacokinetic, viral load and tolerability findings, read-out: serum cmax an effective and tolerable regimen may have to achieve) was 150 to 275 µM and the Cmax ([1]; both sexes, po, 33 mg/kg, 99 mg group, first oral dose 33 mg/kg, read-out: cmax, range within group) was 53 to 314 µM. It also gave a Cmax ([1]; both sexes, po, 50 mg/kg, 150 mg group, first oral dose 50 mg/kg, read-out: cmax, range within group) of 128 to 285 µM, a Cmax ([1]; oral, 99 mg, Subject 2, 99 mg group, read-out: cmax) of 314 µM and a Cmax ([1]; oral, 150 mg, Subject 19, 150 mg group, read-out: cmax) of 128 µM. For the same compound, the Cmax ([1]; oral, 150 mg, Subject 22, 150 mg group, read-out: cmax) was 285 µM, the “newly synthesized deoxyhypusyl-eIF5A accumulated in HIV-infected treated cells, higher than in uninfected treated cultures” value ([2]; 200 μM deferiprone) was ~40% and the “DOHH activity in the primary cells” value ([2]; at ≤100 μM deferiprone, infected and uninfected cultures) was ≥ 90%. For the same compound, the “cellular DOHH activity” value ([2]; at ≥200 μM deferiprone, infected and uninfected cultures) was ≤ 8%.
